# Values joined by “and” are separate entries in the source; they are usually repeats but may differ in a detail not shown here. Identical values can stand only once. Records with an inconclusive call do not appear.
# Test system: Lewis lung carcinoma i.m., BDF1 mice, T/C %
# Test: NCI In Vivo Anticancer Drug Screen. Data for tumor model Lewis Lung Carcinoma (intramuscular) in B6D2F1 (BDF1) mice
# Summary of the method: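 Compound given to mice with transplantable tumours; survival or tumour size compared against the vehicle control group, reported as T divided by C.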
# [1] = endpoint: mean tumor weight (est.), dose: 12.5 mg/kg/injection, schedule: Q01DX011 (ip), vehicle: saline with Tween-80, higher = larger tumour
# [2] = endpoint: mean tumor weight (est.), dose: 25.0 mg/kg/injection, schedule: Q01DX011 (ip), vehicle: saline with Tween-80, higher = larger tumour
# [3] = endpoint: mean tumor weight (est.), dose: 50.0 mg/kg/injection, schedule: Q01DX011 (ip), vehicle: saline with Tween-80, higher = larger tumour
# [4] = endpoint: median survival time, dose: 7.5 mg/kg/injection, schedule: Q01DX011 (ip), vehicle: saline, higher = longer survival
# [5] = endpoint: median survival time, dose: 12.5 mg/kg/injection, schedule: Q01DX011 (ip), vehicle: saline with Tween-80, higher = longer survival
# [6] = endpoint: median survival time, dose: 15.0 mg/kg/injection, schedule: Q01DX011 (ip), vehicle: saline, higher = longer survival
# [7] = endpoint: median survival time, dose: 25.0 mg/kg/injection, schedule: Q01DX011 (ip), vehicle: saline with Tween-80, higher = longer survival
structure (smiles),measurement,setting,value
CN(C)CCCNc1c2ccccc2nc2cccc([N+](=O)[O-])c12,T/C,"endpoint: median survival time, dose: 0.1 mg/kg/injection, schedule: Q02DX011 (ip), vehicle: saline, higher = longer survival",88 % of control
same,T/C,"endpoint: median survival time, dose: 2.0 micrograms/kg/injection, schedule: Q01DX009 (ip), vehicle: saline, higher = longer survival",120 % of control
same,T/C,"endpoint: median survival time, dose: 4.0 micrograms/kg/injection, schedule: Q01DX009 (ip), vehicle: saline, higher = longer survival",92 % of control and 104 % of control
same,T/C,"endpoint: median survival time, dose: 16.0 micrograms/kg/injection, schedule: Q01DX009 (ip), vehicle: saline, higher = longer survival",109 % of control
same,T/C,"endpoint: median survival time, dose: 32.0 micrograms/kg/injection, schedule: Q01DX009 (ip), vehicle: saline, higher = longer survival",100 % of control
same,T/C,"endpoint: median survival time, dose: 64.0 micrograms/kg/injection, schedule: Q01DX009 (ip), vehicle: saline, higher = longer survival",88 % of control and 107 % of control
O=C1C(=O)c2ccccc2C(O)=C1CC=C(Cl)Cl,T/C,"endpoint: mean tumor weight (est.), dose: 6.25 mg/kg/injection, schedule: Q01DX011 (ip), vehicle: saline with Tween-80, higher = larger tumour",93 % of control
same,T/C,[1],86 % of control
same,T/C,[2],61 % of control
same,T/C,[3],79 % of control
same,T/C,"endpoint: mean tumor weight, dose: 3.75 mg/kg/injection, schedule: Q01DX011 (oral), vehicle: saline, higher = larger tumour",40 % of control
same,T/C,"endpoint: mean tumor weight, dose: 7.5 mg/kg/injection, schedule: Q01DX011 (ip), vehicle: saline, higher = larger tumour",54 % of control
same,T/C,"endpoint: mean tumor weight, dose: 7.5 mg/kg/injection, schedule: Q01DX011 (oral), vehicle: saline, higher = larger tumour",41 % of control
same,T/C,"endpoint: mean tumor weight, dose: 10.0 mg/kg/injection, schedule: Q01DX011 (ip), vehicle: saline, higher = larger tumour",102 % of control
same,T/C,"endpoint: mean tumor weight, dose: 12.5 mg/kg/injection, schedule: Q01DX011 (ip), vehicle: other, higher = larger tumour",71 % of control
same,T/C,"endpoint: mean tumor weight, dose: 15.0 mg/kg/injection, schedule: Q01DX011 (ip), vehicle: saline, higher = larger tumour",43 % of control
same,T/C,"endpoint: mean tumor weight, dose: 20.0 mg/kg/injection, schedule: Q01DX011 (ip), vehicle: saline, higher = larger tumour",91 % of control
same,T/C,"endpoint: mean tumor weight, dose: 25.0 mg/kg/injection, schedule: Q01DX011 (ip), vehicle: other, higher = larger tumour",88 % of control
same,T/C,"endpoint: mean tumor weight, dose: 30.0 mg/kg/injection, schedule: Q01DX011 (ip), vehicle: saline, higher = larger tumour",30 % of control
same,T/C,"endpoint: mean tumor weight, dose: 40.0 mg/kg/injection, schedule: Q01DX011 (ip), vehicle: saline, higher = larger tumour",82 % of control
same,T/C,"endpoint: mean tumor weight, dose: 50.0 mg/kg/injection, schedule: Q01DX011 (ip), vehicle: other, higher = larger tumour",55 % of control
same,T/C,"endpoint: median survival time, dose: 3.75 mg/kg/injection, schedule: Q01DX011 (oral), vehicle: saline, higher = longer survival",100 % of control
same,T/C,"endpoint: median survival time, dose: 6.25 mg/kg/injection, schedule: Q01DX011 (ip), vehicle: saline with Tween-80, higher = longer survival",89 % of control
same,T/C,[4],111 % of control
same,T/C,"endpoint: median survival time, dose: 7.5 mg/kg/injection, schedule: Q01DX011 (oral), vehicle: saline, higher = longer survival",101 % of control
same,T/C,[5],93 % of control
same,T/C,[6],113 % of control
same,T/C,"endpoint: median survival time, dose: 20.0 mg/kg/injection, schedule: Q01DX011 (ip), vehicle: saline, higher = longer survival",87 % of control
same,T/C,[7],89 % of control
same,T/C,"endpoint: median survival time, dose: 30.0 mg/kg/injection, schedule: Q01DX011 (ip), vehicle: saline, higher = longer survival",108 % of control
NCCCNCCSP(=O)(O)O,T/C,"endpoint: median survival time, dose: 300.0 mg/kg/injection, schedule: Q01DX001 (ip), vehicle: saline, higher = longer survival",102 % of control
same,T/C,"endpoint: median survival time, dose: 500.0 mg/kg/injection, schedule: Q01DX001 (ip), vehicle: saline, higher = longer survival",92 % of control
CC(C)(C)CC(C)(C)NCC(O)COc1ccc(C(C)(C)c2ccc(OCC(O)CNC(C)(C)CC(C)(C)C)cc2)cc1 (stereo unspecified),T/C,"endpoint: mean tumor weight (est.), dose: 3.12 mg/kg/injection, schedule: Q01DX011 (ip), vehicle: other, higher = larger tumour",68 % of control
CO[C@H](C(=O)[C@@H](O)[C@@H](C)O)[C@@H]1Cc2cc3cc(OC4CC(OC5CC(O)C(O)C(C)O5)C(O)C(C)O4)c(C)c(O)c3c(O)c2C(=O)[C@H]1OC1CC(OC2CC(OC3CC(C)(O)C(O)C(C)O3)C(O)C(C)O2)C(O)C(C)O1 (stereo partly specified),T/C,"endpoint: mean tumor weight, dose: 0.06 mg/kg/injection, schedule: Q01DX011 (ip), vehicle: water, higher = larger tumour",89 % of control
same,T/C,"endpoint: mean tumor weight, dose: 0.12 mg/kg/injection, schedule: Q01DX011 (ip), vehicle: water, higher = larger tumour",107 % of control
same,T/C,"endpoint: mean tumor weight, dose: 0.25 mg/kg/injection, schedule: Q01DX011 (ip), vehicle: water, higher = larger tumour",111 % of control
same,T/C,"endpoint: mean tumor weight, dose: 0.5 mg/kg/injection, schedule: Q01DX011 (ip), vehicle: water, higher = larger tumour",66 % of control
same,T/C,"endpoint: median survival time, dose: 0.12 mg/kg/injection, schedule: Q01DX011 (ip), vehicle: water, higher = longer survival",108 % of control and 114 % of control
same,T/C,"endpoint: median survival time, dose: 0.13 mg/kg/injection, schedule: Q01DX009 (ip), vehicle: water, higher = longer survival",94 % of control and 104 % of control
same,T/C,"endpoint: median survival time, dose: 0.25 mg/kg/injection, schedule: Q01DX009 (ip), vehicle: water, higher = longer survival",97 % of control and 101 % of control
same,T/C,"endpoint: median survival time, dose: 0.25 mg/kg/injection, schedule: Q01DX011 (ip), vehicle: water, higher = longer survival",92 % of control and 109 % of control
same,T/C,"endpoint: median survival time, dose: 0.5 mg/kg/injection, schedule: Q01DX009 (ip), vehicle: water, higher = longer survival",95 % of control and 108 % of control
same,T/C,"endpoint: median survival time, dose: 0.5 mg/kg/injection, schedule: Q01DX011 (ip), vehicle: water, higher = longer survival",103 % of control and 114 % of control
same,T/C,"endpoint: median survival time, dose: 1.0 mg/kg/injection, schedule: Q01DX009 (ip), vehicle: water, higher = longer survival",111 % of control
Nc1ncnc2c1ncn2Cc1ccccc1,T/C,[1],101 % of control
same,T/C,[2],102 % of control
same,T/C,[3],76 % of control
same,T/C,"endpoint: mean tumor weight (est.), dose: 100.0 mg/kg/injection, schedule: Q01DX011 (ip), vehicle: saline with Tween-80, higher = larger tumour",67 % of control
same,T/C,[5],89 % of control
same,T/C,[7],100 % of control
same,T/C,"endpoint: median survival time, dose: 50.0 mg/kg/injection, schedule: Q01DX011 (ip), vehicle: saline with Tween-80, higher = longer survival",93 % of control
same,T/C,"endpoint: median survival time, dose: 100.0 mg/kg/injection, schedule: Q01DX011 (ip), vehicle: saline with Tween-80, higher = longer survival",97 % of control
CCCCCCCCCCCCCC[n+]1ccccc1,T/C,"endpoint: mean tumor weight (est.), dose: 0.06 mg/kg/injection, schedule: Q01DX011 (ip), vehicle: saline, higher = larger tumour",82 % of control
same,T/C,"endpoint: mean tumor weight (est.), dose: 0.07 mg/kg/injection, schedule: Q01DX011 (ip), vehicle: saline, higher = larger tumour",46 % of control
same,T/C,"endpoint: mean tumor weight (est.), dose: 0.12 mg/kg/injection, schedule: Q01DX011 (ip), vehicle: saline, higher = larger tumour",80 % of control
same,T/C,"endpoint: mean tumor weight (est.), dose: 0.13 mg/kg/injection, schedule: Q01DX011 (ip), vehicle: saline, higher = larger tumour",42 % of control
same,T/C,"endpoint: mean tumor weight (est.), dose: 0.5 mg/kg/injection, schedule: Q01DX011 (ip), vehicle: saline, higher = larger tumour",84 % of control
same,T/C,"endpoint: median survival time, dose: 0.06 mg/kg/injection, schedule: Q01DX011 (ip), vehicle: saline, higher = longer survival",100 % of control
same,T/C,"endpoint: median survival time, dose: 0.07 mg/kg/injection, schedule: Q01DX011 (ip), vehicle: saline, higher = longer survival",93 % of control
same,T/C,"endpoint: median survival time, dose: 0.12 mg/kg/injection, schedule: Q01DX011 (ip), vehicle: saline, higher = longer survival",100 % of control
same,T/C,"endpoint: median survival time, dose: 0.13 mg/kg/injection, schedule: Q01DX011 (ip), vehicle: saline, higher = longer survival",100 % of control
same,T/C,"endpoint: median survival time, dose: 0.25 mg/kg/injection, schedule: Q01DX011 (ip), vehicle: saline, higher = longer survival",91 % of control and 94 % of control
same,T/C,"endpoint: median survival time, dose: 0.5 mg/kg/injection, schedule: Q01DX011 (ip), vehicle: saline, higher = longer survival",100 % of control
CCCCCCCCCCCCCCCC[N+](C)(C)c1nc(Cl)nc(Cl)n1,T/C,"endpoint: mean tumor weight (est.), dose: 7.5 mg/kg/injection, schedule: Q01DX011 (ip), vehicle: saline, higher = larger tumour",92 % of control
same,T/C,"endpoint: mean tumor weight (est.), dose: 15.0 mg/kg/injection, schedule: Q01DX011 (ip), vehicle: saline, higher = larger tumour",65 % of control
same,T/C,[4],106 % of control
same,T/C,[6],112 % of control
Cc1c(N)nc(C(CC(N)=O)NCC(N)C(N)=O)nc1C(=O)NC(C(=O)NC(C)C(O)C(C)C(=O)NC(C(=O)NCCc1nc(-c2nc(C(=O)NCCC[S+](C)C)cs2)cs1)C(C)O)C(OC1OC(CO)C(O)C(O)C1OC1OC(CO)C(O)C(OC(N)=O)C1O)c1cnc[nH]1 (stereo unspecified),T/C,"endpoint: median survival time, dose: 6.5 mg/kg/injection, schedule: Q01DX011 (ip), vehicle: saline, higher = longer survival",152 % of control
same,T/C,"endpoint: median survival time, dose: 10.8 mg/kg/injection, schedule: Q01DX011 (ip), vehicle: saline, higher = longer survival",168 % of control
same,T/C,"endpoint: median survival time, dose: 18.0 mg/kg/injection, schedule: Q01DX011 (ip), vehicle: saline, higher = longer survival",166 % of control
O=S(=O)(O)SCCNCCCCCC1CCCCC1,T/C,"endpoint: mean tumor weight (est.), dose: 0.75 mg/kg/injection, schedule: Q01DX011 (ip), vehicle: saline, higher = larger tumour",78 % of control
same,T/C,"endpoint: mean tumor weight (est.), dose: 1.5 mg/kg/injection, schedule: Q01DX011 (ip), vehicle: saline, higher = larger tumour",80 % of control
same,T/C,"endpoint: mean tumor weight (est.), dose: 3.0 mg/kg/injection, schedule: Q01DX011 (ip), vehicle: saline, higher = larger tumour",88 % of control
same,T/C,"endpoint: mean tumor weight (est.), dose: 6.0 mg/kg/injection, schedule: Q01DX011 (ip), vehicle: saline, higher = larger tumour",100 % of control
same,T/C,"endpoint: median survival time, dose: 0.75 mg/kg/injection, schedule: Q01DX011 (ip), vehicle: saline, higher = longer survival",94 % of control
same,T/C,"endpoint: median survival time, dose: 1.5 mg/kg/injection, schedule: Q01DX011 (ip), vehicle: saline, higher = longer survival",111 % of control
same,T/C,"endpoint: median survival time, dose: 3.0 mg/kg/injection, schedule: Q01DX011 (ip), vehicle: saline, higher = longer survival",107 % of control
same,T/C,"endpoint: median survival time, dose: 6.0 mg/kg/injection, schedule: Q01DX011 (ip), vehicle: saline, higher = longer survival",96 % of control
CC(=O)c1ccc(Oc2ccc(/C(C)=N\N=C(N)N)cc2)cc1,T/C,[1],66 % of control
same,T/C,[2],74 % of control
same,T/C,[5],91 % of control
